Five compounds from ChEMBL document CHEMBL5104100, “Synthesis and Preclinical Characterization of LY3154885, a Human Dopamine D1 Receptor Positive Allosteric Modulator with an Improved Nonclinical Drug-Drug Interaction Risk Profile” (J Med Chem, 2022) can be followed below.

The target in one data set is D(1A) dopamine receptor (Homo sapiens, UniProt P21728). Briefly: Positive allosteric modulation of human D1 receptor in HEK293 cells assessed as increase in cyclic AMP production measured after 60 mins in presence of dopamine by HTRF assay. Format: cell-based. A general note: In TR-FRET formats the signal depends on donor and acceptor labels being close together.
Sequence of D(1A) dopamine receptor (P21728 whole entry): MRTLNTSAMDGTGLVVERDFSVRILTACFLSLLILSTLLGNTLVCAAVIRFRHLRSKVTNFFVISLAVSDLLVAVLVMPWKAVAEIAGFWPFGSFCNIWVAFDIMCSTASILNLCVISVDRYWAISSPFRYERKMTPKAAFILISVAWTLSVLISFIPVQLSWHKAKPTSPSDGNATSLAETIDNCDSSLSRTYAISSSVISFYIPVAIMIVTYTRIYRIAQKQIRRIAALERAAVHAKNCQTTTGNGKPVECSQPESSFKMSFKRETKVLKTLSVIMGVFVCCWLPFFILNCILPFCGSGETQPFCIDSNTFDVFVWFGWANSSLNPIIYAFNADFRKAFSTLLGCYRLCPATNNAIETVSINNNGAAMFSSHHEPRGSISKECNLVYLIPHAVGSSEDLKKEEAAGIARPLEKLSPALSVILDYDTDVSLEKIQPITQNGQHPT
Data set [1] can be described thus: Solubility of compound at pH 6 by HTSA assay. In kind it is physicochemical. Conditions: buffer.
The next data set has as its system Cytochrome P450. Briefly: Drug metabolism in human hepatocytes assessed as fraction of Cyp mediated oxidative metabolism in presence of NADPH. In kind it is ADME, cell-based, Hepatocyte.
The target of data set [2] is T1, CYP3A4 (Homo sapiens, UniProt P08684). The data set is described as follows: Induction of CYP3A4 in human hepatocytes. Format: ADME, cell-based, Hepatocyte.
T1 sequence (P08684 whole entry): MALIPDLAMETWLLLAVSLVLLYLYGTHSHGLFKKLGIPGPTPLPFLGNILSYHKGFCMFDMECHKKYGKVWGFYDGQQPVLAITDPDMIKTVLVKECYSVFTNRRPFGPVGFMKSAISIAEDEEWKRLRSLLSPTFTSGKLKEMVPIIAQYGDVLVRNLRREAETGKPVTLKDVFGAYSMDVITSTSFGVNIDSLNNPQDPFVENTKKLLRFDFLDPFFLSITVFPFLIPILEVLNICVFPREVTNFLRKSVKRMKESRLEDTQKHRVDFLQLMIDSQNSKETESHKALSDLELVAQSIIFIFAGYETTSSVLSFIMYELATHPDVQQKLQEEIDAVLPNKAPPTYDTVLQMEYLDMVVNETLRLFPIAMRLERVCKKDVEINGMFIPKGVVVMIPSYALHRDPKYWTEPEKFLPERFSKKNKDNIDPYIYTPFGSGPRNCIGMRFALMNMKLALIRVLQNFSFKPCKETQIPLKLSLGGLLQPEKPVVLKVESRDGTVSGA
In data set [3] the target is T1, CYP3A4. Briefly: Induction of CYP3A4 in human hepatocytes assessed as maximum efficacy relative to control.

Converted amounts (≈) assume the structure as drawn.

As to `C[C@H]1c2cccc(-c3cnn(C4CC4)c3)c2C[C@H](CO)N1C(=O)Cc1c(Cl)cccc1Cl`, on D(1A) dopamine receptor, the 50% effective concentration (EC50) came out at 10.3 nM. In data set [1], this compound had a solubility of 2 µg/mL (≈ 4.25 µM).

For `CCn1cc(-c2cccc3c2C[C@H](CO)N(C(=O)Cc2c(Cl)cccc2Cl)[C@H]3C)cn1`, the EC50 at D(1A) dopamine receptor was found to be 15.9 nM. For the same compound, the concentration in solution in data set [1] (solubility) was 12 µg/mL (≈ 26.2 µM).

In data set [1], `C[C@H]1c2cccc(-c3cnn(C4COC4)c3)c2C[C@H](CO)N1C(=O)Cc1c(Cl)cccc1Cl` registered a solubility of 35 µg/mL (≈ 72 µM).

With `C[C@H]1c2cccc(-c3cn[nH]c3)c2C[C@H](CO)N1C(=O)Cc1c(Cl)cccc1Cl`, the EC50 on D(1A) dopamine receptor amounted to 6.41 nM. This compound yielded a solubility in data set [1] of 27 µg/mL (≈ 62.7 µM).

`C[C@H]1c2cccc(CCC(C)(C)O)c2C[C@H](CO)N1C(=O)Cc1c(Cl)cccc1Cl`: in the data set with Cytochrome P450, the Fm was determined as 0.6. A half-maximal effect on CYP3A4 [2] (EC50) was put at 5500 nM. Besides, at CYP3A4 [3], the Emax stood at 42%.

One may read the EC50 as the midpoint of the concentration-response curve. One may read the solubility as the concentration that dissolves in the medium under given conditions. The low end stands for a poorly soluble substance, the high end for a readily soluble substance. For orientation: Emax means the size of the effect at its maximum, as opposed to the concentration needed.
